The values below come from publication PMC3697191 (Journal of Pharmacy & Bioallied Sciences, 2013).

Converted amounts (≈) assume the structure as drawn.

The test system of series [1] is Mycobacterium tuberculosis H37Rv. Nature of the series: Microplate Alamar Blue assay. It is filed as cell-based. To be noted: for MIC: Mycobacterium tuberculosis, H37RV, 120 h, read-out: M. tuberculosis MIC, H37Rv, microplate Alamar Blue assay; for times more active than Pyrazinamide (MIC) / times more active than streptomycin (MIC): M. tuberculosis H37Rv. A general note: Resazurin is reduced to fluorescent resorufin, in cell work by metabolically active cells.

Series [2] deals with mouse embryonic fibroblasts cell line (NIH 3T3). To be noted: SI = IC50 (NIH 3T3) / MIC (M. tuberculosis H37Rv).
A short description of another series: in vitro. To be noted: mouse.
The next series has as its system B. substilis. Nature of the series: MIC by two-fold serial dilution. The format is cell-based, Bacillus subtilis.

In the case of `O=C1C(=NNc2nc(-c3ccccc3)cs2)C(N=Cc2ccccc2O)=NN1c1ccccc1` [TZP4f, 3-[[(2-hydroxyphenyl)methylidene]amino]-1-phenyl-4-[2-(4-phenyl-1,3-thiazol-2-yl) hydrazin-1-ylidene]-4,5-dihydro-1H-pyrazol-5-one], the minimal inhibitory concentration (MIC) (commonly the lowest concentration that inhibits growth of the organism) in series [1] was 53.6 µM (≈ 25 µg/mL). The compound also came in with a Selectivity index in series [2] of 24.44.
Consider `[H]/N=C(/N)N[C@H]1[C@H](O)[C@@H](O)[C@H](O[C@@H]2O[C@@H](C)[C@](O)(C=O)[C@H]2O[C@@H]2O[C@@H](CO)[C@H](O)[C@@H](O)[C@@H]2NC)[C@@H](N/C(N)=N\[H])[C@@H]1O` [Streptomycin, reference compound], for which the MIC in series [1] stood at 11 µM (≈ 6.4 µg/mL).
The compound `O=C1C(=NNc2nc(-c3ccccc3)cs2)C(N=Cc2ccc(Cl)cc2)=NN1c1ccccc1` [TZP4d, 3-[[(4-chlorophenyl)methylidene]amino]-1-phenyl-4-[2-(4-phenyl-1,3-thiazol-2-yl) hydrazin-1-ylidene]-4,5-dihydro-1H-pyrazol-5-one] had a Selectivity index in series [2] of 22.37. Further, in “in vitro”, the concentration for half-maximal inhibition (IC50) (as a rule, the point on the concentration scale where inhibition reaches its midpoint) is above 1000 µM.
In the series “in vitro”, `O=C1C(=NNc2nc(-c3ccccc3)cs2)C(N=Cc2ccccc2Cl)=NN1c1ccccc1` [TZP4b, 3-[[(2-chlorophenyl)methylidene]amino]-1-phenyl-4-[2-(4-phenyl-1,3-thiazol-2-yl) hydrazin-1-ylidene]-4,5-dihydro-1H-pyrazol-5-one] showed a 50% inhibitory concentration (IC50) of 990 µM.
In the case of `O=C1C(=NNc2nc(-c3ccccc3)cs2)C(N=Cc2cccc(Cl)c2)=NN1c1ccccc1` [TZP4c, 3-[[(3-chlorophenyl)methylidene]amino]-1-phenyl-4-[2-(4-phenyl-1,3-thiazol-2-yl) hydrazin-1-ylidene]-4,5-dihydro-1H-pyrazol-5-one], in series [2], the Selectivity index was 82.85. For the same compound, the half-inhibitory concentration (IC50) in the series “in vitro” was above 1000 µM.
As to `NC(=O)c1cnccn1` [Pyrazinamide, reference compound], the minimum inhibitory concentration (MIC) in series [1] is 25.4 µM (≈ 3.12 µg/mL).
In series [2], `O=C1C(=NNc2nc(-c3ccccc3)cs2)C(N=Cc2ccc([N+](=O)[O-])cc2)=NN1c1ccccc1` [TZP4l, 3-[[(4-nitrophenyl)methylidene]amino]-1-phenyl-4-[2-(4-phenyl-1,3-thiazol-2-yl) hydrazin-1-ylidene]-4,5-dihydro-1H-pyrazol-5-one] yielded a Selectivity index of 20.32. Further, the 50% inhibitory concentration (IC50) in “in vitro” is above 1000 µM.
Regarding `COc1cc(C=NC2=NN(c3ccccc3)C(=O)C2=NNc2nc(-c3ccccc3)cs2)ccc1O` [TZP4j, 3-[[(4-hydroxy-3-methoxyphenyl)methylidene]amino]-1-phenyl-4-[2-(4-phenyl-1,3-thiazol-2-yl) hydrazin-1-ylidene]-4,5-dihydro-1H-pyrazol-5-one], the “times more active than Ciprofloxacin (MIC)” value with B. substilis came out at 2.99. For the same compound, in series [1], the MIC stood at 25.2 µM (≈ 12.5 µg/mL).
Turning to `COc1cccc(C=NC2=NN(c3ccccc3)C(=O)C2=NNc2nc(-c3ccccc3)cs2)c1` [TZP4i, 3-[[(3-methoxyphenyl)methylidene]amino]-1-phenyl-4-[2-(4-phenyl-1,3-thiazol-2-yl) hydrazin-1-ylidene]-4,5-dihydro-1H-pyrazol-5-one], in series [1], the MIC worked out at 26 µM (≈ 12.5 µg/mL).
As for `O=C1C(=NNc2nc(-c3ccccc3)cs2)C(N=Cc2ccc(O)c(O)c2)=NN1c1ccccc1` [TZP4h, 3-[[(3,4-dihydroxyphenyl)methylidene]amino]-1-phenyl-4-[2-(4-phenyl-1,3-thiazol-2-yl) hydrazin-1-ylidene]-4,5-dihydro-1H-pyrazol-5-one], the “times more active than Ciprofloxacin (MIC)” value in the series with B. substilis worked out at 1.45. Moreover, in series [1], the “times more active than Pyrazinamide (MIC)” value was 3.9, the “times more active than streptomycin (MIC)” value is on record as 1.69 and the minimal inhibitory concentration (MIC) worked out at 6.48 µM (≈ 3.13 µg/mL). Moreover, the Selectivity index in series [2] amounted to 199.07.
For the compound `O=C1C(=NNc2nc(-c3ccccc3)cs2)C(N=Cc2ccc(O)cc2O)=NN1c1ccccc1` [TZP4g, 3-[[(2,4-dihydroxyphenyl)methylidene]amino]-1-phenyl-4-[2-(4-phenyl-1,3-thiazol-2-yl) hydrazin-1-ylidene]-4,5-dihydro-1H-pyrazol-5-one], the “times more active than Ciprofloxacin (MIC)” value in the series with B. substilis amounted to 1.45. In series [1], the “times more active than Pyrazinamide (MIC)” value came to 1.69, the “times more active than streptomycin (MIC)” value was determined as 3.91 and the MIC was found to be 12.9 µM (≈ 6.25 µg/mL). Further, the Selectivity index in series [2] is reported as 168.88. In the series “in vitro”, this compound had an IC50 above 1000 µM.
Turning to `CN(C)c1ccc(C=NC2=NN(c3ccccc3)C(=O)C2=NNc2nc(-c3ccccc3)cs2)cc1` [TZP4k, 3-[{[4-(dimethylamino)phenyl]methylidene}amino]-1-phenyl-4-[2-(4-phenyl-1,3-thiazol-2-yl) hydrazin-1-ylidene]-4,5-dihydro-1H-pyrazol-5-one], in series [1], the MIC was 13 µM (≈ 6.4 µg/mL).
